Experimental data as given in US11492346B2, “Benzisoxazole sulfonamide derivatives” (Pfizer Inc., priority 2019, dated 2022).
Read-outs that look alike come from different tables or passages of the source.

Key:
KAT7 = KAT7 (Homo sapiens (Human), UniProt O95251); assay: KAT assay (SAMDI mass spectrometry), KAT7; type: biochemical;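 note: Baculovirus-expressed enzyme acetylating a histone peptide at room temperature, percent conversion from product and substrate peak areas, Ki from a Morrison tight-binding competitive fit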
Protocol: (§1) Prepare 10 mM stock solutions in 100% DMSO from solid material • 2. Serial dilute 10 mM, 1 mM or 0.1 mM compound stocks 3-fold in 100% DMSO for 11-point dose response
(§2) Prepare 1× assay buffer containing 10 mM Tris HCL pH 8.0, 2.5 mM NaCl, 0.5 mM EDTA, 0.005% BSG and 0.02% Tween-20 • 2. Dilute Histone peptide (CPC Scientific) and AcCoA (Sigma) together in assay buffer to 2×. • 3. Dilute KAT enzyme in assay buffer to 2×.
(§3) Enzyme reaction • 1. Final reaction conditions for each KAT assay in a 20 ul assay reaction volume: • i. KAT5 25 nM, 1 uM AcCoA, 2 uM H4 1-21 peptide, 30-minute reaction • ii. KAT6A 15 nM, 1 uM AcCoA, 2 uM H3 1-21 peptide, 45-minute reaction • iii. KAT6B 25 nM, 1 uM AcCoA, 2 uM H3 1-21 peptide, 60-minute reaction • iv. KAT7 12.5 nM, 1 uM AcCoA, 2 uM H3 1-21 peptide, 45-minute reaction • v. KAT8 15 nM, 1 uM AcCoA, 2 uM H3 1-21 peptide, 45-minute reaction • 2. Add 0.5 ul of diluted compound to the assay plate (384-well V-bottom polypropylene plates) or 0.5 ul of DMSO for control wells. • 3. Add 10 ul of 2× Histone peptide/2×AcCoA mix to the assay plate. • 4. Add 10 ul of 2× enzyme to the assay plate. • 5. Stop the reaction after the indicated time with the addition of 2 ul of 5% formic acid • 6. Each reaction was analyzed using self-assembled monolayer desorption/ionization time-of-flight mass spectrometry (Mrksich, Milan (2008) Mass Spectrometry of Self-Assembled Monolayers: A New Tool for Molecular Surface Science ACS Nano 2008 2 (1), 7-18; SAMDI Tech, Inc. (Chicago, Ill.)). • 7. Area under the curve (AUC) for both substrate and product peaks was determined for KAT5 at M.W. 2561 [Substrate+H]^+ and 2603 [Product+H]^+ with a +/−1 Da tolerance, respectively • 8. Area under the curve (AUC) for both substrate and product peaks was determined for KAT6a, KAT6B, KAT7 and KAT8 at M.W. 2723 [Substrate+H]^+ and 2765 [Product+H]^+ with a +/−1 Da tolerance, respectively. […] Percent conversion to product was calculated by: AUCProduct/(AUCsubstrate+AUCProduct).
(§4) IC50 values were determined by fitting the % conversion at each inhibitor concentration to the 4-parameter IC50 equation using Pfizer proprietary curve fitting software. • 2. Ki values were determined by fitting the % conversion at each inhibitor concentration to the Morrison equation for tightbinding competitive inhibitors using Pfizer proprietary curve fitting software.
(§5) KAT enzymes were expressed using a baculovirus expression system and purified at Pfizer, La Jolla. […] Acetyl coenzyme A was purchased from Sigma-Aldrich (St. Louis, Mo.). All other biochemical reagents were purchased from Sigma-Aldrich or ThermoFisher Scientific (Waltham, Mass.).
(§6) KAT assays were performed at room temperature in assay buffer containing 1 μM AcCoA, 2 μM histone peptide, 10 mM Tris HCL pH 8.0, 2.5 mM NaCl, 0.5 mM EDTA, 0.005% BSG and 0.02% Tween-20. 10 ul of 2× Histone peptide/AcCoA mix was added to a 384-well V-bottom polypropylene assay plate containing 0.5 ul of serially diluted test compound in 100% dimethyl sulfoxide (DMSO). To start the reaction, 10 ul of 2× enzyme solution was added to the assay plate. KAT assays were terminated after 30-60 minutes with the addition of 2 ul of 5% formic acid. All assays used histone H3 (1-21) peptide except for the KAT5 assay which used histone H4 (1-21) peptide. The final enzyme concentration for each KAT was as follows: KAT5, 25 nM; KAT6A, 15 nM; KAT6B, 25 nM; KAT7, 12.5 nM; KAT8 15 nM. Each reaction was analyzed using self-assembled monolayer desorption/ionization time-of-flight mass spectrometry (Mrksich, Milan (2008) Mass Spectrometry of Self-Assembled Monolayers: A New Tool for Molecular Surface Science ACS Nano 2008 2 (1), 7-18; SAMDI Tech, Inc. (Chicago, Ill.)).
(§7) Area under the curve (AUC) for both substrate and product peaks was determined for KAT5 at M.W. 2561 [Substrate+H]^+ and 2603 [Product+H]^+ with a +/−1 Da tolerance, respectively.

KAT6A = KAT6A (Homo sapiens (Human), UniProt Q92794); assay: KAT assay (SAMDI mass spectrometry), KAT6A; type: biochemical;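 note: Baculovirus-expressed KAT6A acetylating histone H3 (1-21) peptide (2 µM), 30-60 min at room temperature, % product conversion fitted to Morrison equation for tight-binding competitive inhibitors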
Protocol: as §1, §2, §3, §4, §5, §6, §7

[1] = KAT6a Ki at 1 μM AcCoA, 1 μM AcCoA
[2] = KAT6a Ki at 10 μM AcCoA, 10 μM AcCoA
[3] = read-out: KAT7 Ki at 1 μM AcCoA
[4] = read-out: KAT6a Ki at 1 μM AcCoA, 1 μM AcCoA
[5] = read-out: KAT6a Ki at 10 μM AcCoA, 10 μM AcCoA

KAT7, sequence (O95251 whole entry): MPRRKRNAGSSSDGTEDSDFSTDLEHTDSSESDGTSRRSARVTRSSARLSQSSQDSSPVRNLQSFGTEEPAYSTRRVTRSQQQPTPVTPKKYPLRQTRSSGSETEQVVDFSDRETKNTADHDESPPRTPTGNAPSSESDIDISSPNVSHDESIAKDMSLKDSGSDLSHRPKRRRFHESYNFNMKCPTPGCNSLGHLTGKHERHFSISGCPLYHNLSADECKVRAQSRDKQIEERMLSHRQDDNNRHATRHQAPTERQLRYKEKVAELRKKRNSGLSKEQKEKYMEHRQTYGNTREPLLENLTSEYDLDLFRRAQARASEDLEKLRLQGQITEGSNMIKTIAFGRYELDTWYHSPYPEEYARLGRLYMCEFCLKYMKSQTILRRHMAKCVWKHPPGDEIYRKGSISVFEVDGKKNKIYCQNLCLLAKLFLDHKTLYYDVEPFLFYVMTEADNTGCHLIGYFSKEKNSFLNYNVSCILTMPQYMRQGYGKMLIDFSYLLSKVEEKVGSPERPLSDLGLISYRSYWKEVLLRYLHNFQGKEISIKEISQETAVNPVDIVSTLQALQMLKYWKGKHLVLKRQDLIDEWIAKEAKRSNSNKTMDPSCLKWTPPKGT
KAT6A, sequence (Q92794 whole entry): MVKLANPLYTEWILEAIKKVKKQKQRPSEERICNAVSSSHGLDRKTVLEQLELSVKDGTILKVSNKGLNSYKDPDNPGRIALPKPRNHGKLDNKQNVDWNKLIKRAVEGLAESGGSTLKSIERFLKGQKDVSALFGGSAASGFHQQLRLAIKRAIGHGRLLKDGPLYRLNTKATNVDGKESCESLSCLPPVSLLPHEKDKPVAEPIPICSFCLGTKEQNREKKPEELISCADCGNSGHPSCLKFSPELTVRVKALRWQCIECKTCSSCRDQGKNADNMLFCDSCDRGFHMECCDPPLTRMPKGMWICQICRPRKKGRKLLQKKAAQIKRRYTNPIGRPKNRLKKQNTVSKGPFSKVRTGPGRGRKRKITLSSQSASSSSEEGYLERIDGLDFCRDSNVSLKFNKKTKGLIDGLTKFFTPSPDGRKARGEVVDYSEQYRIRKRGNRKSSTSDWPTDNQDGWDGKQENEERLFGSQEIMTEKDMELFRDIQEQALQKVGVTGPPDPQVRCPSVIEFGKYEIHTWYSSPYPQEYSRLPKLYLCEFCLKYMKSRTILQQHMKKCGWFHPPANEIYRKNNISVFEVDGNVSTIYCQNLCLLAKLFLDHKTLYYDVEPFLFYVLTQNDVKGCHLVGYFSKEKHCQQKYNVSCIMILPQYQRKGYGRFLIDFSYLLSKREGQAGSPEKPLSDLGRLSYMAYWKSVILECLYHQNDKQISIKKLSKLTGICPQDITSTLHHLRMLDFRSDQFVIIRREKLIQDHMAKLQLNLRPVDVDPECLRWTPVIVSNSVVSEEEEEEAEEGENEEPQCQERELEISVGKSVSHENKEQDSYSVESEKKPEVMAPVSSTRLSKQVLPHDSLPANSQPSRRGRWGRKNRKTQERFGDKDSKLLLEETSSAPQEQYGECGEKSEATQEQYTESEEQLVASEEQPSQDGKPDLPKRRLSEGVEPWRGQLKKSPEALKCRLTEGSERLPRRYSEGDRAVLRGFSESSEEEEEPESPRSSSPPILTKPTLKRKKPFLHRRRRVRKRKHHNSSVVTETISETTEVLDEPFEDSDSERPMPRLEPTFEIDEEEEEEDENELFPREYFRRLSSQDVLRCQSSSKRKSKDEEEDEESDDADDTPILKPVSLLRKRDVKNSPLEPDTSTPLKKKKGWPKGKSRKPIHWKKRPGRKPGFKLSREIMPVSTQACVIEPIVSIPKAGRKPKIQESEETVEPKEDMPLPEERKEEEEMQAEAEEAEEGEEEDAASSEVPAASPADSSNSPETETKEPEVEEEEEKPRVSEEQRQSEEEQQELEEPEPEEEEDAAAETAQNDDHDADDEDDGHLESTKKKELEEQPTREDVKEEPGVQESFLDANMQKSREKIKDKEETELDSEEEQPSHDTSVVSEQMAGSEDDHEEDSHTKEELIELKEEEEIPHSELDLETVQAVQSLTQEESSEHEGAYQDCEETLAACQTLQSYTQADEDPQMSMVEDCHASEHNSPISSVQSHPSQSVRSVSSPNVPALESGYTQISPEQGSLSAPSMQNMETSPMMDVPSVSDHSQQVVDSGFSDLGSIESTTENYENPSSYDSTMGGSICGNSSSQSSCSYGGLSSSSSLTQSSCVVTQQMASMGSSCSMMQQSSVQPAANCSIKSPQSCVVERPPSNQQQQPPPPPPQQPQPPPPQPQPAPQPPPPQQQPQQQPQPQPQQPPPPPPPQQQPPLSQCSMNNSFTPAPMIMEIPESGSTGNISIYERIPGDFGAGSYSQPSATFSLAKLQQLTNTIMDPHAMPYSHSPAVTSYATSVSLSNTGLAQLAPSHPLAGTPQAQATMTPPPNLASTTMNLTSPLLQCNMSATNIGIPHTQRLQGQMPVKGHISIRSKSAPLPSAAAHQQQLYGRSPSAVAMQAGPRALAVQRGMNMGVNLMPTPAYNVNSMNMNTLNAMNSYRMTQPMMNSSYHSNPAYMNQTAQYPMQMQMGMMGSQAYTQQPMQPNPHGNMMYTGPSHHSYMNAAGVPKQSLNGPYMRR

Row | Structure (SMILES) | Ki (KAT7; KAT7 Ki at 1 μM AcCoA) | Ki (KAT6A; [1]) | Ki (KAT6A; [2]) | Ki (KAT7; [3]) | Ki (KAT6A; [4]) | Ki (KAT6A; [5])
1 | COc1cccc(OC)c1S(=O)(=O)Nc1noc2cc(C(O)c3ncco3)cc(OC)c12 (single isomer, unassigned) [Example 108, N-{6-[(S*)-hydroxy(1,3-oxazol-2-yl)methyl]-4-methoxy-1,2-benzoxazol-3-yl}-2,6-dimethoxybenzenesulfonamide] | 1.3 µM | 0.072 µM | – | – | – | –
2 | COc1cccc(OC)c1S(=O)(=O)Nc1noc2cc(C(O)c3ncco3)cc(OC)c12 (single isomer, unassigned) [Example 109, N-{6-[(R*)-hydroxy(1,3-oxazol-2-yl)methyl]-4-methoxy-1,2-benzoxazol-3-yl}-2,6-dimethoxybenzenesulfonamide] | 3.1 µM | 0.044 µM | – | – | – | –
3 | COc1cccc(OC)c1S(=O)(=O)Nc1noc2cc(C(O)c3ccon3)cc(OC)c12 (single isomer, unassigned) [Example 112] | 1.5 µM | 0.082 µM | – | – | – | –
4 | COc1cccc(OC)c1S(=O)(=O)Nc1noc2cc(C(O)c3ccon3)cc(OC)c12 (single isomer, unassigned) [Example 113] | 2.8 µM | 0.014 µM | – | – | – | –
5 | COc1cccc(OC)c1S(=O)(=O)Nc1noc2cc(C(O)c3ncccn3)cc(OC)c12 (single isomer, unassigned) [Example 115] | > 15 µM | 1.22 µM | – | – | – | –
6 | COc1cccc(OC)c1S(=O)(=O)Nc1noc2cc(C(O)c3cc[nH]n3)cc(OC)c12 (single isomer, unassigned) [Example 117] | 0.2 µM | 0.202 µM | – | – | – | –
7 | COc1cccc(OC)c1S(=O)(=O)Nc1noc2cc(C(O)c3cc[nH]n3)cc(OC)c12 (single isomer, unassigned) [Example 118] | 2.3 µM | 0.357 µM | – | – | – | –
8 | COc1cccc(OC)c1S(=O)(=O)Nc1noc2cc(C(O)c3cnoc3)cc(OC)c12 (single isomer, unassigned) [Example 120] | 2.4 µM | 0.831 µM | 0.212 µM | – | – | –
9 | COc1cccc(OC)c1S(=O)(=O)Nc1noc2cc(C(O)c3cnoc3)cc(OC)c12 (single isomer, unassigned) [Example 121] | > 15 µM | 1.58 µM | > 0.6 µM | – | – | –
10 | COc1cccc(OC)c1S(=O)(=O)Nc1noc2cc(C(O)c3cocn3)cc(OC)c12 (single isomer, unassigned) [Example 126] | 4.15 µM | 0.23 µM | – | – | – | –
11 | COc1cccc(OC)c1S(=O)(=O)Nc1noc2cc(Cn3ncc4ccccc43)cc(OC)c12 [Example 30] | – | – | – | 1.1 µM | 0.06 µM | –
12 | COc1cccc(OC)c1S(=O)(=O)Nc1noc2cc(Cn3cccn3)cc(Cl)c12 [Example 33] | – | – | – | 0.31 µM | 0.0031 µM | –
13 | COc1ccc(S(=O)(=O)Nc2noc3cc(Cn4cccn4)ccc23)c(OC)c1 [Example 35] | – | – | – | 0.42 µM | 0.015 µM | –
14 | COc1ccc(Cl)cc1S(=O)(=O)Nc1noc2cc(Cn3cccn3)ccc12 [Example 36] | – | – | – | 0.98 µM | 0.017 µM | –
15 | COCc1ccc(OC)c(S(=O)(=O)Nc2noc3cc(Cn4cccn4)ccc23)c1 [Example 37] | – | – | – | 4.6 µM | 0.017 µM | –
16 | COc1cc(C)ccc1S(=O)(=O)Nc1noc2cc(Cn3cccn3)ccc12 [Example 38] | – | – | – | 0.53 µM | 0.016 µM | –
17 | CCOc1cc2c(NS(=O)(=O)c3c(OC)cccc3OC)noc2cc1Cn1cccn1 [Example 40] | – | – | – | 0.38 µM | 0.00047 µM | –
18 | COc1cc2c(cc1S(=O)(=O)Nc1noc3cc(Cn4cccn4)cc(OC)c13)CCOC2 [Example 43] | – | – | – | 0.57 µM | 0.0036 µM | –
19 | COc1cc(Cn2cccn2)cc2onc(NS(=O)(=O)c3ccc(C(F)(F)F)cc3)c12 [Example 46] | – | – | – | 1.03 µM | 0.0329 µM | 0.0131 µM
20 | COc1cc(Cn2cccn2)cc2onc(NS(=O)(=O)c3cc(C)cc(C)c3)c12 [Example 48] | – | – | – | 0.41 µM | 0.0149 µM | 0.00651 µM
21 | COc1cc(Cn2cccn2)cc2onc(NS(=O)(=O)c3cc(F)ccc3C)c12 [Example 49] | – | – | – | 0.37 µM | 0.00977 µM | 0.00414 µM
22 | COc1cc(Cn2cccn2)cc2onc(NS(=O)(=O)c3ccccc3C(F)(F)F)c12 [Example 52] | – | – | – | 0.66 µM | 0.0146 µM | 0.00732 µM
23 | COc1cc(Cn2cccn2)cc2onc(NS(=O)(=O)c3cccc(C(F)(F)F)c3)c12 [Example 53] | – | – | – | 0.3 µM | 0.0161 µM | 0.00878 µM
24 | COc1cc(Cn2cccn2)cc2onc(NS(=O)(=O)c3cccc(F)c3F)c12 [Example 54] | – | – | – | 1.16 µM | 0.057 µM | 0.038 µM
25 | COC(=O)c1cccc(C)c1S(=O)(=O)Nc1noc2cc(Cn3cccn3)cc(OC)c12 [Example 55] | – | – | – | 15 µM | 0.291 µM | 0.178 µM
26 | COc1cc(Cn2cccn2)cc2onc(NS(=O)(=O)c3cccc(F)c3C)c12 [Example 56] | – | – | – | 0.6 µM | 0.0149 µM | 0.00731 µM

Row | Structure (SMILES) | Ki (KAT7; KAT7 Ki at 1 μM AcCoA) | Ki (KAT6A; [1]) | Ki (KAT6A; [2]) | Ki (KAT7; [3]) | Ki (KAT6A; [4]) | Ki (KAT6A; [5])
27 | COc1cc(Cn2cccn2)cc2onc(NS(=O)(=O)c3cc(F)cc(F)c3)c12 [Example 57] | – | – | – | 0.45 µM | 0.016 µM | –
28 | COc1cc(Cn2cccn2)cc2onc(NS(=O)(=O)c3cc(C)ccc3F)c12 [Example 58] | – | – | – | 0.86 µM | 0.0111 µM | 0.00523 µM
29 | COc1cccc(S(=O)(=O)Nc2noc3cc(Cn4cccn4)cc(OC)c23)c1 [Example 59] | – | – | – | 0.22 µM | 0.013 µM | 0.00625 µM
30 | COc1cc(Cn2cccn2)cc2onc(NS(=O)(=O)c3ccc(OC4CC4)cc3)c12 [Example 60] | – | – | – | 0.42 µM | 0.00981 µM | 0.00464 µM
31 | COc1cc(Cn2cccn2)cc2onc(NS(=O)(=O)c3c(F)cc(C)cc3F)c12 [Example 62] | – | – | – | 0.36 µM | 0.00964 µM | 0.0039 µM
32 | COc1cc(Cn2cccn2)cc2onc(NS(=O)(=O)c3cccc(F)c3Cl)c12 [Example 63] | – | – | – | 0.94 µM | 0.0158 µM | 0.0109 µM
33 | COc1cc(Cn2cccn2)cc2onc(NS(=O)(=O)c3cc(F)c(F)c(F)c3)c12 [Example 64] | – | – | – | 0.63 µM | 0.0253 µM | 0.011 µM
34 | CNC(=O)c1ccc(S(=O)(=O)Nc2noc3cc(Cn4cccn4)cc(OC)c23)cc1 [Example 66] | – | – | – | 4.05 µM | 0.0954 µM | 0.0656 µM
35 | COCc1ccccc1S(=O)(=O)Nc1noc2cc(Cn3cccn3)cc(OC)c12 [Example 67] | – | – | – | 1.76 µM | 0.02 µM | 0.0102 µM
36 | COc1cc(Cn2cccn2)cc2onc(NS(=O)(=O)c3cc(F)c(Cl)cc3F)c12 [Example 68] | – | – | – | 0.25 µM | 0.0149 µM | 0.0105 µM
37 | CCOc1ccc(S(=O)(=O)Nc2noc3cc(Cn4cccn4)cc(OC)c23)cc1 [Example 69] | – | – | – | 0.37 µM | – | 0.0091 µM
38 | COC(=O)c1c(C)cccc1S(=O)(=O)Nc1noc2cc(Cn3cccn3)cc(OC)c12 [Example 74] | – | – | – | 2.87 µM | 0.0248 µM | 0.0136 µM
39 | COc1cc(OC)cc(S(=O)(=O)Nc2noc3cc(Cn4cccn4)cc(OC)c23)c1 [Example 80] | – | – | – | 0.36 µM | 0.0156 µM | 0.00532 µM
40 | CCc1nc2cc(S(=O)(=O)Nc3noc4cc(Cn5cccn5)cc(OC)c34)ccc2o1 [Example 81] | – | – | – | 1.62 µM | 0.0182 µM | 0.00996 µM
41 | COc1cc(S(=O)(=O)Nc2noc3cc(Cn4cccn4)cc(OC)c23)ccc1F [Example 82] | – | – | – | 0.64 µM | 0.0169 µM | 0.0122 µM
42 | COc1ccc(O)c(S(=O)(=O)Nc2noc3cc(Cn4cccn4)cc(OC)c23)c1 [Example 83] | – | – | – | 0.78 µM | 0.0137 µM | 0.00776 µM
43 | COc1ccc(S(=O)(=O)Nc2noc3cc(Cn4cccn4)cc(OC)c23)c(C)c1F [Example 85] | – | – | – | 1.14 µM | 0.0133 µM | 0.00877 µM
44 | COc1cc(Cn2cccn2)cc2onc(NS(=O)(=O)c3cc(F)c(F)cc3F)c12 [Example 86] | – | – | – | 0.37 µM | 0.0289 µM | 0.00711 µM
45 | COc1ccc(O)c(OC)c1S(=O)(=O)Nc1noc2cc(Cn3cccn3)cc(OC)c12 [Example 103, 3-hydroxy-2,6-dimethoxy-N-{4-methoxy-6-[(1H-pyrazol-1-yl)methyl]-1,2-benzoxazol-3-yl}benzene-1-sulfonamide] | – | – | – | 0.15 µM | 0.0003 µM | 0.00051 µM
46 | COc1cccc(O)c1S(=O)(=O)Nc1noc2cc(Cn3cccn3)cc(OC)c12 [Example 104, 2-hydroxy-6-methoxy-N-{4-methoxy-6-[(1H-pyrazol-1-yl)methyl]-1,2-benzoxazol-3-yl}benzene-1-sulfonamide] | – | – | – | 2.06 µM | 0.00611 µM | 0.00389 µM
47 | COc1cccc(OC)c1S(=O)(=O)Nc1noc2cc(Cn3cc(O)cn3)cc(OC)c12 [Example 105, N-{6-[(4-hydroxy-1H-pyrazol-1-yl)methyl]-4-methoxy-1,2-benzoxazol-3-yl}-2,6-dimethoxybenzene-1-sulfonamide] | – | – | – | 0.23 µM | 0.00308 µM | 0.00628 µM
48 | COc1cccc(OC)c1S(=O)(=O)Nc1noc2cc(C(O)c3ccccn3)cc(OC)c12 (stereo not drawn) [Example 106, N-{6-[hydroxy(pyridin-2-yl)methyl]-4-methoxy-1,2-benzoxazol-3-yl}-2,6-dimethoxybenzenesulfonamide] | – | – | – | 1.9 µM | 0.035 µM | –
49 | COc1cccc(OC)c1S(=O)(=O)Nc1noc2cc(Cc3cnccn3)cc(OC)c12 [Example 111, 2,6-dimethoxy-N-[4-methoxy-6-(pyrazin-2-ylmethyl)-1,2-benzoxazol-3-yl]benzenesulfonamide] | – | – | – | 0.39 µM | 0.013 µM | –
50 | COc1cccc(OC)c1S(=O)(=O)Nc1noc2cc(Cc3cc[nH]n3)cc(OC)c12 [Example 119] | – | – | – | 0.65 µM | 0.021 µM | 0.013 µM
51 | COc1cccc(OC)c1S(=O)(=O)Nc1noc2cc(Cc3cnoc3)cc(OC)c12 [Example 122] | – | – | – | 7.4 µM | 0.164 µM | 0.025 µM
52 | COc1cccc(OC)c1S(=O)(=O)Nc1noc2cc(C(O)c3cnccn3)cc(OC)c12 (stereo not drawn) [Example 123] | – | – | – | 4.6 µM | 0.138 µM | –
